Among the data in patent publication US9771369B2, “Compounds and methods for kinase modulation, and indications therefor” (Plexxikon Inc., priority 2014, dated 2017) are IC50 values, retold here.

Structures are written as SMILES.

Assay [1] has as its system BaF3-FL KIT D816V or BaF3-FL KIT V560G/D816V cell line. As to the kind of experiment: Cell-based assays of c-Kit mutant kinase activity (cell proliferation, ATPlite). The settings on record: at least one of the c-kit cell assays of Example 7. In short, it runs like this:
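BaF3 cells dependent on transfected full-length human KIT D816V or V560G/D816V (pCI-Neo, CMV promoter) were seeded at 1×10^4 cells/well and exposed to 8-point 1:3 dilutions from 10 μM top (0.2% DMSO) for three days at 37° C. ATPlite luminescence gave cell number; IC50 from concentration-response.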
(In general: Cellular ATP, detected with luciferase, serves as a proxy for viable cell number.)

The next assay addresses c-Kit kinase (Homo sapiens (Human), UniProt P10721). Description: c-Kit biochemical assay (AlphaScreen kinase activity). In short, it runs like this: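 IC50 values come from 8-point, 1:3 compound titrations measuring inhibition of peptide phosphorylation by c-Kit (commercial or His-tagged E. coli-expressed) over 1 h at room temperature, read by AlphaScreen PY30/streptavidin beads. Low-ATP version: 10 μM ATP, 100 nM biotin-(E4Y)3; high-ATP version: 100 μM ATP, 30 nM biotin-(E4Y)10.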
Background: Alpha assays give light when donor and acceptor beads are brought close together.

c-Kit kinase, sequence (P10721 26-976): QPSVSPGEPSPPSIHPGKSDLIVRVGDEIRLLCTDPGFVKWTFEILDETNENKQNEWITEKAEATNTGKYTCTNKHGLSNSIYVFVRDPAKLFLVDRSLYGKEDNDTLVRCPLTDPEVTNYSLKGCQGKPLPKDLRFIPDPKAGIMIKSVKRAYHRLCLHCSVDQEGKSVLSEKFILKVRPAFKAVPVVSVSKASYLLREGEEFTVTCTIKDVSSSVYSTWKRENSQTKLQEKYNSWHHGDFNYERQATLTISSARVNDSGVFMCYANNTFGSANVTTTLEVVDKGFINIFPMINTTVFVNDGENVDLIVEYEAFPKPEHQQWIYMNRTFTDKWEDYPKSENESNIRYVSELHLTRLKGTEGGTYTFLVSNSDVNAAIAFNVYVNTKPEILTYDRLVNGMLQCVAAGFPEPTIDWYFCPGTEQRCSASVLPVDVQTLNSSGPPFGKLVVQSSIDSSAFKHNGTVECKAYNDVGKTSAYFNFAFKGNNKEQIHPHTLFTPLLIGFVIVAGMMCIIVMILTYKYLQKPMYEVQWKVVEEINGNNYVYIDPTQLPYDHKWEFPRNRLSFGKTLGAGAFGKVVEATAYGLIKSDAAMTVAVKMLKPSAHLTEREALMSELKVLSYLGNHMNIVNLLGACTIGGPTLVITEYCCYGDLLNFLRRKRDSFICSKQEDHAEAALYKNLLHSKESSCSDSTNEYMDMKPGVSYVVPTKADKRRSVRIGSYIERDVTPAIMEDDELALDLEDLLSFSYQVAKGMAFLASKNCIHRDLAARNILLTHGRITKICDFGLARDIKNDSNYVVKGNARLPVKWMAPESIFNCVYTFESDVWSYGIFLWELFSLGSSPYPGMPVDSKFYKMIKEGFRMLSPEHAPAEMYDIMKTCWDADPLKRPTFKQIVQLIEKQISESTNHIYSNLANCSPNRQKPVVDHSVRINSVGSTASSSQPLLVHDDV

Turning to `COc1ccc(-c2[nH]c(C3(C)CCN(c4ncnc5[nH]c(-c6ccc(NS(C)(=O)=O)cc6)cc45)CC3)nc2C)cc1F` [P-3213, N-[4-[4-[4-[5-(3-fluoro-4-methoxy-phenyl)-4-methyl-1H-imidazol-2-yl]-4-methyl-1-piperidyl]-7H-pyrrolo[2,3-d]pyrimidin-6-yl]phenyl]methanesulfonamide], the IC50 in assay [1] is under 10000 nM; on c-Kit kinase, 0.0001 to 1 µM.
As for `COc1ccc(-c2[nH]c(C3(C)CCN(c4ncnc5[nH]c(-c6ccc(OCC(=O)O)cc6)cc45)CC3)nc2C)cc1F` [P-3214, 2-[4-[4-[4-[5-(3-fluoro-4-methoxy-phenyl)-4-methyl-1H-imidazol-2-yl]-4-methyl-1-piperidyl]-7H-pyrrolo[2,3-d]pyrimidin-6-yl]phenoxy]acetic acid], the half-maximal inhibitory concentration (IC50) in assay [1] was under 10000 nM; against c-Kit kinase it was 0.0001 to 1 µM.
In the same order, the values of `COc1ccc(-c2[nH]c(C3(C)CCN(c4ncnc5[nH]c(-c6ccc(N7CCOCC7)nc6)cc45)CC3)nc2C)cc1F` [P-3215, 4-[5-[4-[4-[5-(3-fluoro-4-methoxy-phenyl)-4-methyl-1H-imidazol-2-yl]-4-methyl-1-piperidyl]-7H-pyrrolo[2,3-d]pyrimidin-6-yl]-2-pyridyl]morpholine] are under 10000 nM and 0.0001 to 1 µM.
The matching figures for `COc1ccc(-c2[nH]c(C3(C)CCN(c4ncnc5[nH]c(-c6ccc(C(N)=O)cc6)cc45)CC3)nc2C)cc1C` [P-3216, 4-[4-[4-[5-(4-methoxy-3-methyl-phenyl)-4-methyl-1H-imidazol-2-yl]-4-methyl-1-piperidyl]-7H-pyrrolo[2,3-d]pyrimidin-6-yl]benzamide]: under 10000 nM and 0.0001 to 1 µM.
On to `COc1ccc(-c2[nH]c(C3(C)CCN(c4ncnc5[nH]c(-c6ccc(OCC(=O)O)cc6)cc45)CC3)nc2C)cc1C` [P-3217, 2-[4-[4-[4-[5-(4-methoxy-3-methyl-phenyl)-4-methyl-1H-imidazol-2-yl]-4-methyl-1-piperidyl]-7H-pyrrolo[2,3-d]pyrimidin-6-yl]phenoxy]acetic acid], for which the IC50 in assay [1] is under 10000 nM; against c-Kit kinase, 0.0001 to 1 µM.
For the compound `CNC(=O)c1ccc(-c2cc3c(N4CCC(C)(c5nc(C)c(-c6ccc(OC)c(C)c6)[nH]5)CC4)ncnc3[nH]2)cn1` [P-3218, 5-[4-[4-[5-(4-methoxy-3-methyl-phenyl)-4-methyl-1H-imidazol-2-yl]-4-methyl-1-piperidyl]-7H-pyrrolo[2,3-d]pyrimidin-6-yl]-N-methyl-pyridine-2-carboxamide], the half-inhibitory concentration (IC50) is under 10000 nM in assay [1] and 0.0001 to 1 µM at c-Kit kinase.
With `COc1ccc(-c2[nH]c(C3(C)CCN(c4ncnc5[nH]c(-c6ccc(N7CCOCC7)nc6)cc45)CC3)nc2C)cc1C` [P-3219, 4-[5-[4-[4-[5-(4-methoxy-3-methyl-phenyl)-4-methyl-1H-imidazol-2-yl]-4-methyl-1-piperidyl]-7H-pyrrolo[2,3-d]pyrimidin-6-yl]-2-pyridyl]morpholine], the IC50 was under 10000 nM in assay [1] and 0.0001 to 1 µM against c-Kit kinase.
Turning to `CNC(=O)c1ccc(-c2cc3c(N4CCC(C)(c5nc(C)c(-c6ccc(OC)c(F)c6)[nH]5)CC4)ncnc3[nH]2)cn1` [P-3220, 5-[4-[4-[5-(3-fluoro-4-methoxy-phenyl)-4-methyl-1H-imidazol-2-yl]-4-methyl-1-piperidyl]-7H-pyrrolo[2,3-d]pyrimidin-6-yl]-N-methyl-pyridine-2-carboxamide], the IC50 in assay [1] was under 10000 nM; against c-Kit kinase, 0.0001 to 1 µM.
Consider `COc1cccc(-c2[nH]c(C3(C)CCN(c4ncnc5[nH]c(-c6ccc(OCC(=O)O)cc6)cc45)CC3)nc2C)c1` [P-3221, 2-[4-[4-[4-[5-(3-methoxyphenyl)-4-methyl-1H-imidazol-2-yl]-4-methyl-1-piperidyl]-7H-pyrrolo[2,3-d]pyrimidin-6-yl]phenoxy]acetic acid], for which the 50% inhibitory concentration (IC50) in assay [1] was under 10000 nM; on c-Kit kinase, 0.0001 to 1 µM.
The matching figures for `CNC(=O)c1ccc(-c2cc3c(N4CCC(C)(c5nc(C)c(-c6cccc(OC)c6)[nH]5)CC4)ncnc3[nH]2)cn1` [P-3222, 5-[4-[4-[5-(3-methoxyphenyl)-4-methyl-1H-imidazol-2-yl]-4-methyl-1-piperidyl]-7H-pyrrolo[2,3-d]pyrimidin-6-yl]-N-methyl-pyridine-2-carboxamide]: under 10000 nM and 0.0001 to 1 µM.
In the same order, the values of `COc1cccc(-c2[nH]c(C3(C)CCN(c4ncnc5[nH]c(-c6ccc(N7CCOCC7)nc6)cc45)CC3)nc2C)c1` [P-3223, 4-[5-[4-[4-[5-(3-methoxyphenyl)-4-methyl-1H-imidazol-2-yl]-4-methyl-1-piperidyl]-7H-pyrrolo[2,3-d]pyrimidin-6-yl]-2-pyridyl]morpholine] are under 10000 nM and 0.0001 to 1 µM.
The matching figures for `CCOc1ccc(-c2[nH]c(C3(C)CCN(c4ncnc5[nH]c(-c6ccc(OCC(=O)O)cc6)cc45)CC3)nc2C)cc1` [P-3224, 2-[4-[4-[4-[5-(4-ethoxyphenyl)-4-methyl-1H-imidazol-2-yl]-4-methyl-1-piperidyl]-7H-pyrrolo[2,3-d]pyrimidin-6-yl]phenoxy]acetic acid]: under 10000 nM and 0.0001 to 1 µM.
With `COc1cccc(-c2[nH]c(C3(C)CCN(c4ncnc5[nH]c(-c6ccc(C(N)=O)cc6)cc45)CC3)nc2C)c1` [P-3225, 4-[4-[4-[5-(3-methoxyphenyl)-4-methyl-1H-imidazol-2-yl]-4-methyl-1-piperidyl]-7H-pyrrolo[2,3-d]pyrimidin-6-yl]benzamide], the IC50 is under 10000 nM in assay [1] and 0.0001 to 1 µM on c-Kit kinase.
For the compound `CCOc1ccc(-c2[nH]c(C3(C)CCN(c4ncnc5[nH]c(-c6ccc(C(=O)NC)nc6)cc45)CC3)nc2C)cc1` [P-3226, 5-[4-[4-[5-(4-ethoxyphenyl)-4-methyl-1H-imidazol-2-yl]-4-methyl-1-piperidyl]-7H-pyrrolo[2,3-d]pyrimidin-6-yl]-N-methyl-pyridine-2-carboxamide], the IC50 in assay [1] is under 10000 nM; on c-Kit kinase, 0.0001 to 1 µM.
In the same order, the values of `CCOc1ccc(-c2[nH]c(C3(C)CCN(c4ncnc5[nH]c(-c6ccc(N7CCOCC7)nc6)cc45)CC3)nc2C)cc1` [P-3227, 4-[5-[4-[4-[5-(4-ethoxyphenyl)-4-methyl-1H-imidazol-2-yl]-4-methyl-1-piperidyl]-7H-pyrrolo[2,3-d]pyrimidin-6-yl]-2-pyridyl]morpholine] are under 10000 nM and 0.0001 to 1 µM.
Take `COc1ccc(-c2[nH]c(C3(C)CCN(c4ncnc5[nH]c(-c6ccc(NS(C)(=O)=O)cc6)cc45)CC3)nc2C)cc1C` [P-3228, N-[4-[4-[4-[5-(4-methoxy-3-methyl-phenyl)-4-methyl-1H-imidazol-2-yl]-4-methyl-1-piperidyl]-7H-pyrrolo[2,3-d]pyrimidin-6-yl]phenyl]methanesulfonamide]: the figures for the IC50 (in assay [1]; on c-Kit kinase) were under 10000 nM and 0.0001 to 1 µM, respectively.
The matching figures for `CCOc1ccc(-c2[nH]c(C3(C)CCN(c4ncnc5[nH]c(-c6ccc(C(N)=O)cc6)cc45)CC3)nc2C)cc1` [P-3229, 4-[4-[4-[5-(4-ethoxyphenyl)-4-methyl-1H-imidazol-2-yl]-4-methyl-1-piperidyl]-7H-pyrrolo[2,3-d]pyrimidin-6-yl]benzamide]: under 10000 nM and 0.0001 to 1 µM.
In the same order, the values of `CCOc1ccc(-c2[nH]c(C3(C)CCN(c4ncnc5[nH]c(-c6ccc(NS(C)(=O)=O)cc6)cc45)CC3)nc2C)cc1` [P-3230, N-[4-[4-[4-[5-(4-ethoxyphenyl)-4-methyl-1H-imidazol-2-yl]-4-methyl-1-piperidyl]-7H-pyrrolo[2,3-d]pyrimidin-6-yl]phenyl]methanesulfonamide] are under 10000 nM and 0.0001 to 1 µM.
On to `Cc1nc(C2(C)CCN(c3ncnc4[nH]c(-c5ccc(C(N)=O)cc5)cc34)CC2)[nH]c1-c1cccc(OC(F)F)c1` [P-3231, 4-[4-[4-[5-[3-(difluoromethoxy)phenyl]-4-methyl-1H-imidazol-2-yl]-4-methyl-1-piperidyl]-7H-pyrrolo[2,3-d]pyrimidin-6-yl]benzamide], for which the figures for the IC50 (in assay [1]; on c-Kit kinase) were under 10000 nM and 0.0001 to 1 µM, respectively.
With `Cc1nc(C2(C)CCN(c3ncnc4[nH]c(-c5ccc(NS(C)(=O)=O)cc5)cc34)CC2)[nH]c1-c1cccc(OC(F)F)c1` [P-3232, N-[4-[4-[4-[5-[3-(difluoromethoxy)phenyl]-4-methyl-1H-imidazol-2-yl]-4-methyl-1-piperidyl]-7H-pyrrolo[2,3-d]pyrimidin-6-yl]phenyl]methanesulfonamide], the half-inhibitory concentration (IC50) in assay [1] is under 10000 nM; at c-Kit kinase it was 0.0001 to 1 µM.
Regarding `Cc1nc(C2(C)CCN(c3ncnc4[nH]c(-c5ccc(OCC(=O)O)cc5)cc34)CC2)[nH]c1-c1cccc(OC(F)F)c1` [P-3233, 2-[4-[4-[4-[5-[3-(difluoromethoxy)phenyl]-4-methyl-1H-imidazol-2-yl]-4-methyl-1-piperidyl]-7H-pyrrolo[2,3-d]pyrimidin-6-yl]phenoxy]acetic acid], the concentration for half-maximal inhibition (IC50) is under 10000 nM in assay [1] and 0.0001 to 1 µM on c-Kit kinase.
The matching figures for `COc1cccc(-c2[nH]c(C3(C)CCN(c4ncnc5[nH]c(-c6ccc(NS(C)(=O)=O)cc6)cc45)CC3)nc2C)c1` [P-3234, N-[4-[4-[4-[5-(3-methoxyphenyl)-4-methyl-1H-imidazol-2-yl]-4-methyl-1-piperidyl]-7H-pyrrolo[2,3-d]pyrimidin-6-yl]phenyl]methanesulfonamide]: under 10000 nM and 0.0001 to 1 µM.
As to `CNC(=O)c1ccc(-c2cc3c(N4CCC(C)(c5nc(C)c(-c6ccc(C(F)F)cc6)[nH]5)CC4)ncnc3[nH]2)cn1` [P-3235, 5-[4-[4-[5-[4-(difluoromethyl)phenyl]-4-methyl-1H-imidazol-2-yl]-4-methyl-1-piperidyl]-7H-pyrrolo[2,3-d]pyrimidin-6-yl]-N-methyl-pyridine-2-carboxamide], the figures for the concentration for half-maximal inhibition (IC50) (in assay [1]; against c-Kit kinase) were under 10000 nM and 0.0001 to 1 µM, respectively.

What is called IC50 is the concentration at which inhibition is half-maximal. Low values mean greater potency, high ones weaker potency.
